Calls of active or inactive are those of the source. The calls are words filed in the database; no cut-off is given here. Peptide text beside a SMILES is read from it. * marks the point of attachment. X1 = CC(=O)N[C@H]1[C@H](O[C@H]2[C@@H](O)[C@H](O)[C@@H](CO)O[C@@H]2*)O[C@H](CO)[C@@H](O[C@@H]2O[C@H](CO)[C@H](O)[C@H](O[C@]3(C(=O)O)C[C@H](O)[C@@H](NC(C)=O)[C@H]([C@H](O)[C@H](O)CO)O3)[C@H]2O)[C@@H]1O; GlcNAc(β1-2)αMan = CC(=O)N[C@H]1[C@H](O[C@H]2[C@@H](O)[C@H](O)[C@@H](CO)O[C@@H]2*)O[C@H](CO)[C@@H](O)[C@@H]1O; Hexanoyl(5-oxo) = CC(=O)CCCC(=O)*
Key:
[1] = system: Arachis hypogaea; test: Binding affinity to biotin-labeled Arachis hypogaea agglutinin in pH 7.4 Tris buffer by fluorescence microarray method
[2] = system: Canavalia ensiformis; test: Binding affinity to biotin-labeled Canavalia ensiformis agglutinin in pH 7.4 Tris buffer by fluorescence microarray method
[3] = system: Triticum aestivum; test: Binding affinity to biotin-labeled Wheat germ agglutinin in pH 7.4 Tris buffer by fluorescence microarray method
[4] = biological target: Laminin subunit alpha-1 (Homo sapiens) (UniProt P25391); test: Binding affinity to biotin-labeled human recombinant laminin-1 at 10 ug/ml in pH 5.6 MES buffer by fluorescence microarray method
[5] = biological target: Lactotransferrin (Homo sapiens) (UniProt P02788); test: Binding affinity to biotin-labeled lactoferrin (unknown origin) at 10 ug/ml in pH 5.6 MES buffer by fluorescence microarray method
[6] = biological target: Lactotransferrin (Homo sapiens) (UniProt P02788); test: Binding affinity to biotin-labeled lactoferrin (unknown origin) at 10 ug/ml in pH 7.4 Tris buffer by fluorescence microarray method
[7] = system: Datura stramonium; test: Binding affinity to biotin-labeled Datura stramonium agglutinin in pH 7.4 Tris buffer by fluorescence microarray method
[8] = system: Erythrina crista-galli; test: Binding affinity to biotin-labeled Erythrina crista-galli agglutinin in pH 7.4 Tris buffer by fluorescence microarray method
[9] = system: Maackia amurensis; test: Binding affinity to biotin-labeled Maackia amurensis agglutinin in pH 7.4 Tris buffer by fluorescence microarray method
[10] = biological target: Laminin subunit alpha-1 (Homo sapiens) (UniProt P25391); test: Binding affinity to biotin-labeled human recombinant laminin-1 at 10 ug/ml in pH 7.4 Tris buffer by fluorescence microarray method
[11] = system: Sambucus racemosa subsp. sieboldiana; test: Binding affinity to biotin-labeled Sambucus sieboldiana agglutinin in pH 7.4 Tris buffer by fluorescence microarray method
[12] = Binding affinity to biotin-labeled Agaricus bisporus agglutinin in pH 7.4 Tris buffer by fluorescence microarray method
[13] = species on record: Homo sapiens; test: Binding affinity to biotin-labeled human recombinant laminin-2 at 10 ug/ml in 5.6 MES buffer by fluorescence microarray method
[14] = species on record: Homo sapiens; test: Binding affinity to biotin-labeled human recombinant laminin-2 at 10 ug/ml in pH 7.4 Tris buffer by fluorescence microarray method

Laminin subunit alpha-1 (Homo sapiens), sequence (P25391 whole entry): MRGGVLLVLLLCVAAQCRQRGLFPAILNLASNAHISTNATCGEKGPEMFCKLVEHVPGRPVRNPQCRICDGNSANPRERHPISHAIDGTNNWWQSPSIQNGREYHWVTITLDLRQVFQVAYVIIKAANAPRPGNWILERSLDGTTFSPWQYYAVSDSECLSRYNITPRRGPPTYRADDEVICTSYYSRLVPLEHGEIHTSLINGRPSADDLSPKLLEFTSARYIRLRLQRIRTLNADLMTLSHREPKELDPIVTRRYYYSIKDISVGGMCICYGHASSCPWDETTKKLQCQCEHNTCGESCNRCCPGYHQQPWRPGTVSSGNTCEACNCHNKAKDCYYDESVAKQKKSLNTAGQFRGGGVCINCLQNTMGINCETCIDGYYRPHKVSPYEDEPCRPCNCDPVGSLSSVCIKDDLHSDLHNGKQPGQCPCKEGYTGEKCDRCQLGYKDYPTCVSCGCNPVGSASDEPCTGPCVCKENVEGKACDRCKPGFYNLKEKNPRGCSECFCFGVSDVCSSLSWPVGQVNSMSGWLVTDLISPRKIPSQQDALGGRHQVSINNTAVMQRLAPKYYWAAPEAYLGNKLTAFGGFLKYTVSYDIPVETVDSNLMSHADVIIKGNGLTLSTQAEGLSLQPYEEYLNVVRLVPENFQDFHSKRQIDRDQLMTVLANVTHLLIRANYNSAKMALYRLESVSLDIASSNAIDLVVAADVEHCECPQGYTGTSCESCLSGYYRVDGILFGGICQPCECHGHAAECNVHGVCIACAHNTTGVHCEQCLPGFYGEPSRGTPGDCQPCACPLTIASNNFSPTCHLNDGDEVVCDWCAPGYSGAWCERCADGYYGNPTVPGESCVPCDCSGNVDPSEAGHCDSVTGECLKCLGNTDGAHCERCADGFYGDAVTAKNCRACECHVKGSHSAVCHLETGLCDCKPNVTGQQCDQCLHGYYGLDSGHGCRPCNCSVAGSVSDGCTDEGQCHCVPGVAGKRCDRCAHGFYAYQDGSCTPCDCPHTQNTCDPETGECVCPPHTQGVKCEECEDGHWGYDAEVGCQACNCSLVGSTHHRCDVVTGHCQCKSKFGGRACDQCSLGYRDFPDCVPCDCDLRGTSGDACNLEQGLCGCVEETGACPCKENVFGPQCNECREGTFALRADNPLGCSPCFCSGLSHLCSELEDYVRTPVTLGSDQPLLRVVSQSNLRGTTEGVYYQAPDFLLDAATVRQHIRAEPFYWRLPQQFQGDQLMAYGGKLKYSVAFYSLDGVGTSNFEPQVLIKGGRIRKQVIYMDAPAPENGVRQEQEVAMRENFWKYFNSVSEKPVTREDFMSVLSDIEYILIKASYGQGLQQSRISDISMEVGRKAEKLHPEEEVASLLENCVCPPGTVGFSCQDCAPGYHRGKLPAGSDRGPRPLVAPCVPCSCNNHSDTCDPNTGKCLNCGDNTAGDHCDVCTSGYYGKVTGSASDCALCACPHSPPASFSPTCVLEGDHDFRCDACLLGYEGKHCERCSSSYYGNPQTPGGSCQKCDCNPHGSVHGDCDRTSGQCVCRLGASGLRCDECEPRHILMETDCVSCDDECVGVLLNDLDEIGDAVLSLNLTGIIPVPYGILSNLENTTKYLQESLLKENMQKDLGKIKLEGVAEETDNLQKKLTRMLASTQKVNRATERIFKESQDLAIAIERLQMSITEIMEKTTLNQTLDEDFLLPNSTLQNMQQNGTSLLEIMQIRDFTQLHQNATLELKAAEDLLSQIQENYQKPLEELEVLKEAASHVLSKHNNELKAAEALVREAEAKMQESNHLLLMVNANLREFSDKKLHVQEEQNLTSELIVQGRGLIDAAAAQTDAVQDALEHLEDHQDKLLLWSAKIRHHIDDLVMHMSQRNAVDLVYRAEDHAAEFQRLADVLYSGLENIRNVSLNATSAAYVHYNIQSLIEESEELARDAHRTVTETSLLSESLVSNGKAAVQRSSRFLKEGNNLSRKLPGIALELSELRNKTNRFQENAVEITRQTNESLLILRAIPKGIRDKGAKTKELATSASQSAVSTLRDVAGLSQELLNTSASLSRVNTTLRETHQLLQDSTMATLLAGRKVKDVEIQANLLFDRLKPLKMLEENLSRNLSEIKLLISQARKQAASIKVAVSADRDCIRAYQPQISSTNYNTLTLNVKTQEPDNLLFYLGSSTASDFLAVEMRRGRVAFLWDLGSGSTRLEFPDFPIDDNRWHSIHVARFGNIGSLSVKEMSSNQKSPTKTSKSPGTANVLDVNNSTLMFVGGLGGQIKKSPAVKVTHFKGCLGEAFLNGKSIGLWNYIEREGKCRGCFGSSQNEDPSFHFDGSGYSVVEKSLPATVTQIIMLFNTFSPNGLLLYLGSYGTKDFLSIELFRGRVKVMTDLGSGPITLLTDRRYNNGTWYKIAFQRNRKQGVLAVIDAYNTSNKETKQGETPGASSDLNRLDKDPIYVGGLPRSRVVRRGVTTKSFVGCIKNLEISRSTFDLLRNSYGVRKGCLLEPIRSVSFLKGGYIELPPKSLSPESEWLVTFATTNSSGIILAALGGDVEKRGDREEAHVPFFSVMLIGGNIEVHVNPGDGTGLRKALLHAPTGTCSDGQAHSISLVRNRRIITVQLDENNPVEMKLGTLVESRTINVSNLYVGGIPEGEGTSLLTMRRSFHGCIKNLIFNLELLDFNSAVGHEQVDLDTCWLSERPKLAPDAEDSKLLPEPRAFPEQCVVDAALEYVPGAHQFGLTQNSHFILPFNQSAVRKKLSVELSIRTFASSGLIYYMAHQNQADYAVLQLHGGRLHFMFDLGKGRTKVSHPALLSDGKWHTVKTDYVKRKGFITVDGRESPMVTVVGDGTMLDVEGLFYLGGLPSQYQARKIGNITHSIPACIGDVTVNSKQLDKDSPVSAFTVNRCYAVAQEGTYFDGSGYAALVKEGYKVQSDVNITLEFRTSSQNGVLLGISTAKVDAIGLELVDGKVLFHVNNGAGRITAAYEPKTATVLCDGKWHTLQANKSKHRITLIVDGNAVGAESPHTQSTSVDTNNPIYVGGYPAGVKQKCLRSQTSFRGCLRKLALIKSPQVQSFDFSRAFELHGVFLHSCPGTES
Lactotransferrin (Homo sapiens), sequence (P02788 whole entry): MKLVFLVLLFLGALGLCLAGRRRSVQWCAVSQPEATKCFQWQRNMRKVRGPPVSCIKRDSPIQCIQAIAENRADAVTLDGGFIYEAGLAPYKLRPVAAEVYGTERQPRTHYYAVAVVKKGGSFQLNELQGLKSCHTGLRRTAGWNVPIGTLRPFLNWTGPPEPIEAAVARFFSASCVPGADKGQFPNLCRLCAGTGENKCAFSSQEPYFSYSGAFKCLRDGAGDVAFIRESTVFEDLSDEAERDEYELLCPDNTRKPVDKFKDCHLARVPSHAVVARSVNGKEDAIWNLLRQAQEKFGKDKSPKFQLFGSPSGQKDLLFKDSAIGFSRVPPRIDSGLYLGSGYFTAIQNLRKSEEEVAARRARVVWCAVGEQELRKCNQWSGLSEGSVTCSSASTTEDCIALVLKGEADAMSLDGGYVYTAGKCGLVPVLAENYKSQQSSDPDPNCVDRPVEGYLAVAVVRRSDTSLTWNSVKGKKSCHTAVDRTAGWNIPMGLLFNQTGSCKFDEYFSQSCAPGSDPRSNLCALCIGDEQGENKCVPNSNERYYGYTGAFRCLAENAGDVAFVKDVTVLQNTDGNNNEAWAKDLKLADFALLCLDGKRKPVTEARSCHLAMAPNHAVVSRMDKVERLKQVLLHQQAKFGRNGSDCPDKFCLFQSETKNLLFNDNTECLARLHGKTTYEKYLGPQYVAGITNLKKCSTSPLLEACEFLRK

SMILES	Activity [1]	Activity [2]	Activity [3]	Activity [4]	Activity [5]	Activity [6]	Activity [7]	Activity [8]	Activity [9]	Activity [10]	Activity [11]	Activity [12]	Activity [13]	Activity [14]
CC[C@H](C)[C@H](NC(=O)[C@H](C)NC(=O)CNC(=O)[C@H](CCCNC(=N)N)NC(=O)[C@@H](NC(=O)CCCC(C)=O)[C@@H](C)O)C(=O)N[C@H](C(=O)N[C@@H](CCC(N)=O)C(=O)N[C@H](C(=O)N1CCC[C@H]1C(=O)N[C@H](C(=O)N[C@@H](CC(C)C)C(=O)NCC(=O)N1CCC[C@H]1C(=O)N[C@H](C(=O)N[C@@H](CCC(N)=O)C(=O)N1CCC[C@H]1C(=O)N[C@H](C(=O)N[C@@H](CCCNC(=N)N)C(=O)N[C@H](C(N)=O)C(C)C)[C@@H](C)O)[C@@H](C)CC)[C@@H](C)O[C@H]1O[C@H](CO)[C@@H](O)[C@H](O)[C@@H]1O[C@@H]1O[C@H](CO)[C@@H](O[C@@H]2O[C@H](CO)[C@H](O)[C@H](O[C@]3(C(=O)O)C[C@H](O)[C@@H](NC(C)=O)[C@H]([C@H](O)[C@H](O)CO)O3)[C@H]2O)[C@H](O)[C@H]1NC(C)=O)[C@@H](C)O)[C@@H](C)CC ({Hexanoyl(5-oxo)}-TRGAIIQTPT(X1)LGPIQPTRV-NH2)	Active	Active	Active	Active	Active	inactive	inactive	Active	inactive	Active	Active	Active	Active	inactive
CC[C@H](C)[C@H](NC(=O)[C@H](C)NC(=O)CNC(=O)[C@H](CCCNC(=N)N)NC(=O)[C@@H](NC(=O)CCCC(C)=O)[C@@H](C)O)C(=O)N[C@H](C(=O)N[C@@H](CCC(N)=O)C(=O)N[C@H](C(=O)N1CCC[C@H]1C(=O)N[C@H](C(=O)N[C@@H](CC(C)C)C(=O)NCC(=O)N1CCC[C@H]1C(=O)N[C@H](C(=O)N[C@@H](CCC(N)=O)C(=O)N1CCC[C@H]1C(=O)N[C@H](C(=O)N[C@@H](CCCNC(=N)N)C(=O)N[C@H](C(N)=O)C(C)C)[C@@H](C)O[C@H]1O[C@H](CO)[C@@H](O)[C@H](O)[C@@H]1O[C@@H]1O[C@H](CO)[C@@H](O)[C@H](O)[C@H]1NC(C)=O)[C@@H](C)CC)[C@@H](C)O)[C@@H](C)O)[C@@H](C)CC ({Hexanoyl(5-oxo)}-TRGAIIQTPTLGPIQPT(GlcNAc(β1-2)αMan)RV-NH2)	Active	Active	Active	Active	Active	inactive	inactive	Active	inactive	Active	Active	Active	Active	inactive
CC[C@H](C)[C@H](NC(=O)[C@H](C)NC(=O)CNC(=O)[C@H](CCCNC(=N)N)NC(=O)[C@@H](NC(=O)CCCC(C)=O)[C@@H](C)O)C(=O)N[C@H](C(=O)N[C@@H](CCC(N)=O)C(=O)N[C@H](C(=O)N1CCC[C@H]1C(=O)N[C@H](C(=O)N[C@@H](CC(C)C)C(=O)NCC(=O)N1CCC[C@H]1C(=O)N[C@H](C(=O)N[C@@H](CCC(N)=O)C(=O)N1CCC[C@H]1C(=O)N[C@H](C(=O)N[C@@H](CCCNC(=N)N)C(=O)N[C@H](C(N)=O)C(C)C)[C@@H](C)O)[C@@H](C)CC)[C@@H](C)O[C@H]1O[C@H](CO)[C@@H](O)[C@H](O)[C@@H]1O[C@@H]1O[C@H](CO)[C@@H](O)[C@H](O)[C@H]1NC(C)=O)[C@@H](C)O)[C@@H](C)CC ({Hexanoyl(5-oxo)}-TRGAIIQTPT(GlcNAc(β1-2)αMan)LGPIQPTRV-NH2)	Active	Active	Active	Active	Active	inactive	inactive	Active	inactive	Active	Active	Active	Active	inactive
CC[C@H](C)[C@H](NC(=O)[C@H](C)NC(=O)CNC(=O)[C@H](CCCNC(=N)N)NC(=O)[C@@H](NC(=O)CCCC(C)=O)[C@@H](C)O)C(=O)N[C@H](C(=O)N[C@@H](CCC(N)=O)C(=O)N[C@H](C(=O)N1CCC[C@H]1C(=O)N[C@H](C(=O)N[C@@H](CC(C)C)C(=O)NCC(=O)N1CCC[C@H]1C(=O)N[C@H](C(=O)N[C@@H](CCC(N)=O)C(=O)N1CCC[C@H]1C(=O)N[C@H](C(=O)N[C@@H](CCCNC(=N)N)C(=O)N[C@H](C(N)=O)C(C)C)[C@@H](C)O)[C@@H](C)CC)[C@@H](C)O[C@H]1O[C@H](CO)[C@@H](O)[C@H](O)[C@@H]1O[C@@H]1O[C@H](CO)[C@@H](O)[C@H](O)[C@H]1NC(C)=O)[C@@H](C)O[C@H]1O[C@H](CO)[C@@H](O)[C@H](O)[C@@H]1O[C@@H]1O[C@H](CO)[C@@H](O)[C@H](O)[C@H]1NC(C)=O)[C@@H](C)CC ({Hexanoyl(5-oxo)}-TRGAIIQT(GlcNAc(β1-2)αMan)PT(GlcNAc(β1-2)αMan)LGPIQPTRV-NH2)	Active	Active	Active	Active	Active	inactive	inactive	Active	inactive	Active	Active	Active	Active	inactive
CC[C@H](C)[C@H](NC(=O)[C@H](C)NC(=O)CNC(=O)[C@H](CCCNC(=N)N)NC(=O)[C@@H](NC(=O)CCCC(C)=O)[C@@H](C)O)C(=O)N[C@H](C(=O)N[C@@H](CCC(N)=O)C(=O)N[C@H](C(=O)N1CCC[C@H]1C(=O)N[C@H](C(=O)N[C@@H](CC(C)C)C(=O)NCC(=O)N1CCC[C@H]1C(=O)N[C@H](C(=O)N[C@@H](CCC(N)=O)C(=O)N1CCC[C@H]1C(=O)N[C@H](C(=O)N[C@@H](CCCNC(=N)N)C(=O)N[C@H](C(N)=O)C(C)C)[C@@H](C)O)[C@@H](C)CC)[C@@H](C)O)[C@@H](C)O)[C@@H](C)CC ({Hexanoyl(5-oxo)}-TRGAIIQTPTLGPIQPTRV-NH2)	Active	Active	Active	Active	Active	inactive	inactive	Active	inactive	Active	Active	Active	Active	inactive

— ChEMBL document CHEMBL4387728, “Synthetic glycopeptides reveal specific binding pattern and conformational change at O-mannosylated position of α-dystroglycan by POMGnT1 catalyzed GlcNAc modification” (Bioorg Med Chem, 2019)
